Values quoted from earlier work as cited in patent publication US10703699B2, “Solubilization of pterostilbene and resveratrol for aqueous beverages” (Ironstone Separations, Inc., priority 2013, dated 2020).

Assays:
[1] = animal studies

bioavailability [1] [%]	Solubility in aqueous media	Compound
20		Oc1ccc(/C=C/c2cc(O)cc(O)c2)cc1 [Resveratrol, 3,5,4′-trihydroxy-trans-stilbene]
80	very low	trans-3,5-dimethoxy-4-hydroxystilbene [Pterostilbene]
